Ends that are not written are not given here. Peptide text beside a SMILES is read from it.

A word on the IC50: it is the midpoint of a concentration-inhibition curve.

This test has as its target T1, ACE from rabbit lung (Oryctolagus cuniculus, UniProt P12822).
T1 construct: ACE from rabbit lung was purchased from Sigma Chemical Co; purchased Sigma Chemical Co. (St. Louis, MO, USA); host or cells: rabbit lung (tissue-derived)
T1 sequence (P12822 34-1310): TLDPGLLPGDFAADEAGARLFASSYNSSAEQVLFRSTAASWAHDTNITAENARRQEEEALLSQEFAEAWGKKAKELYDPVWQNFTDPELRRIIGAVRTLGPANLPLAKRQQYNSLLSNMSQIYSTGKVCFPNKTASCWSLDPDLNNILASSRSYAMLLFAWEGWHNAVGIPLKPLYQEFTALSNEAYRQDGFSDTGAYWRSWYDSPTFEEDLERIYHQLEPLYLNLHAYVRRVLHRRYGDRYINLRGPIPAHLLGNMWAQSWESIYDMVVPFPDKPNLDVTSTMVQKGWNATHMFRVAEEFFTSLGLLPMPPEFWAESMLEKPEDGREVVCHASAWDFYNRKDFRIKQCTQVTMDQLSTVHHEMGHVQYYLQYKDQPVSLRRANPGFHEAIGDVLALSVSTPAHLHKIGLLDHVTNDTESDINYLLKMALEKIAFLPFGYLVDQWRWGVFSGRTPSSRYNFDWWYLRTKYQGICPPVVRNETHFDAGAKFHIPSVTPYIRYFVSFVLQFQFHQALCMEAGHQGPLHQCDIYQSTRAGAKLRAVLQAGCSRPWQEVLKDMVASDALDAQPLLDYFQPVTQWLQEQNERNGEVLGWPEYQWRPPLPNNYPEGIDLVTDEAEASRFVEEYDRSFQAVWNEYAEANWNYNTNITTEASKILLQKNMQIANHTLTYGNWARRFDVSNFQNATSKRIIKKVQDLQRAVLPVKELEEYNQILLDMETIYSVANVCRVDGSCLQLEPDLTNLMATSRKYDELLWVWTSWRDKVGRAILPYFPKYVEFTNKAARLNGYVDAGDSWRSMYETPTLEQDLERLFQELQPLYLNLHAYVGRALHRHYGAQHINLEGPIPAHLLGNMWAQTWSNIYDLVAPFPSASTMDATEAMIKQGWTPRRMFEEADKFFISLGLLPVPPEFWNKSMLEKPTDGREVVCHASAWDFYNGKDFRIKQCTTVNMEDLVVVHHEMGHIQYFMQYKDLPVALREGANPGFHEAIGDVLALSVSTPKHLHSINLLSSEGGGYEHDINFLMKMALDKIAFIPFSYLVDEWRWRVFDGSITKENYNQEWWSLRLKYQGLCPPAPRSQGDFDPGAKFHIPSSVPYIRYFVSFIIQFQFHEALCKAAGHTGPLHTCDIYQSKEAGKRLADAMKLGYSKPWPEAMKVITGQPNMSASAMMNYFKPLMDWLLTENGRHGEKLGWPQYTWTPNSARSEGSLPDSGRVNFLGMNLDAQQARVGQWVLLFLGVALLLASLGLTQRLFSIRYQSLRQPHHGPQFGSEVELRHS
The test can be described thus: ACE inhibitory assay (Hip-His-Leu). The conditions noted are these: IC50 defined as absolute quantity of peptide to inhibit 50% of 1.0 U ACE; pre-incubated 37 °C 5 min; Hip-His-Leu 12.5 mM, 0.1 M sodium borate, 400 mM NaCl, pH 8.3, 37 °C, 1 h; hippuric acid absorbance at 228 nm; read-out: IC50 Value, ACE inhibitory activity of synthetic peptides. The format is biochemical. The source says:
ACE from rabbit lung was purchased from Sigma Chemical Co. (St. Louis, MO, USA). Hyppuryl-L-histidyl-L-leucine (Hip-His-Leu), thermolysin (EC 3.4.24.27) from Bacillus thermoproteolyticus, pepsin (EC 3.4.23.1) from porcine stomach, trypsin (EC 3.4.21.4) from bovine pancreas and chymotrypsin (EC 3.4.21.1) from bovine pancreas were purchased from Wako Pure Chemical (Osaka, Japan). Synthetic peptides (purity: 99.4%–99.8%) were purchased from Medical Biological Laboratories Co. (Nagoya, Japan). All other reagents were purchased from Wako Pure Chemical Industries (Osaka, Japan).
ACE inhibitory assay was carried out according to the method of Cheng and Cushman with some modifications. Fifteen microliters of sample solution (5.0 mg/mL) were added to 30 μL of ACE (0.2 units/mL), and the mixture was pre-incubated at 37 °C for 5 min. Thirty microliters of Hip-His-Leu solution (12.5 mM in 0.1 M sodium borate buffer containing 400 mM NaCl at pH 8.3) were added to the mixture. After incubation at 37 °C for 1 h, the reaction was stopped by adding 75 μL of 1.0 M HCl. The released hippuric acid was extracted with 450 μL of ethyl acetate. Four hundred microliters of the upper layer were evaporated, and then the hippuric acid was dissolved in 1.5 mL of distilled water. The absorbance at 228 nm of the solution was measured by a spectrophotometer. The inhibition was calculated from the equation [1 − (As − Asb)/(Ac − Acb)] × 100, where Ac is the absorbance of the buffer, Acb is the absorbance when the stop solution was added to the buffer before the reaction, As is the absorbance of the sample, and Asb is the absorbance when the stop solution was added to the sample before the reaction. In this study, we defined the IC50 as an absolute quantity of peptide to inhibit 50% of 1.0 U ACE.
With `CC(C)C[C@H](N)C(=O)N[C@@H](CC(=O)O)C(=O)N[C@@H](Cc1ccc(O)cc1)C(=O)O` [LDY] (H-Leu-Asp-Tyr-OH), the IC50 was found to be 6.1 µM.

With `CC(C)C[C@H](N)C(=O)N[C@@H](CCCNC(=N)N)C(=O)N[C@@H](Cc1ccc(O)cc1)C(=O)O` [LRY] (H-Leu-Arg-Tyr-OH), the IC50 came out at 0.044 µM. For the molecule `CC(C)[C@H](N)C(=O)N[C@@H](Cc1ccc(O)cc1)C(=O)N[C@@H](CCCNC(=N)N)C(=O)N[C@H](C(=O)O)[C@@H](C)O` [VYRT] (H-VYRT-OH), the IC50 stood at 0.14 µM. In the case of FEQDWAS [FEQDWAS], the IC50 was greater than 2.8 µM.
